Experimental data taken from patent publication US20190223437A1, “ACTIVE COMPOUND COMBINATIONS COMPRISING A 5-SUBSTITUTED IMIDAZOLE DERIVATIVE” (BAYER CROPSCIENCE AKTIENGESELLSCHAFT, priority 2016, published 2019).
Where “and” joins values, the source holds several entries; their conditions need not be identical. Equal values may be shown once. Read-outs that look alike come from different tables or passages of the source.

Legend:
[1] = system: fish (Danio rerio) embryos; assay: Example G: in vivo ecotoxicity screening test on fish (Danio rerio); conditions: active compound alone, fish (D. rerio) embryos; for Ecotoxicity LC50-48 h found: mortality after 48 h; for Ecotoxicity LC50-96 h found: mortality after 96 h
Method: (§1) with ECxi the Effect Concentration (EC) of each chemical i (in ppm) causing x % effect on the ecotoxicity test endpoint.
(§2) For each compound combination, the predicted ECx value is calculated. It is then compared to an experimentally measured value. The ratio of predicted versus measured effect for the combination (thereafter called the Model Deviation Ratio or MDR) is then calculated.
(§3) The environmental effect of the compound combinations was measured experimentally in laboratory ecotoxicity screening studies with fish (Danio rerio). […] Mortality was recorded after 48 h and 96 h for each tested concentration and a reference control. […] Then, the MDR values were calculated.
(§4) This concentrate is then diluted with water to the desired a.i. concentration, leading to a maximal solvent concentration of 0.5%. by weight The compounds alone and the combinations were tested for five increasing concentrations comprised between 0.01 and 1000 ppm (mg/1) a.i., (e.g. 0.1, 1.0, 10 and 100 ppm a.i). For the combinations, compounds A and B were mixed in a weight ratio of 5:1 to 1:5 and five increasing concentrations were tested for each ratio.

[2] = system: Colletotrichum coccodes; assay: Example B: in vivo preventive test on Colletotrichum test (tomatoes); conditions: compound alone
Method: (§5) The test is evaluated 3 days after the inoculation.

[3] = system: Pyricularia oryzae; assay type: cell-based; conditions: compound alone
[4] = system: Septoria tritici; assay: Example F: in vitro-Test with Septoria tritici; assay type: cell-based; conditions: compound alone
[5] = system: causal agent of soybean rust (Phakopsora pachyrhizi); assay: Example C: in vivo preventive test on Phakopsora test (soybeans); conditions: compound alone
[6] = system: Alternaria solani; assay: Example A: in vivo preventive test on Alternaria test (tomatoes); conditions: compound alone, evaluated 3 days after inoculation
Method: as §5

[7] = system: Sphaerotheca fuliginea; assay: Example D: in vivo preventive test on Sphaerotheca test (cucumbers); conditions: compound alone
[8] = system: Alternaria alternata; assay: Example F: in vitro-Test with Alternaria alternata; assay type: cell-based; conditions: compound alone, growth inhibition, photometric, 3-5 days after application
[9] = system: Pyrenophora oryzae; assay: Example F: in vitro-Test with Pyrenophora oryzae; assay type: cell-based; conditions: compound alone
[10] = Example G: in vivo ecotoxicity screening test on fish (Danio rerio); conditions: Danio rerio, in vivo, other: exposure of embryos in water containing the compound
Method: as §1, §2, §3, §4

[11] = system: causal agent of apple scab (Venturia inaequalis); assay: Example E: in vivo preventive test on Venturia test (apples); conditions: compound alone

metalaxyl-M (mefenoxam) [Example 12.004]
Ecotoxicity LC50-48 h found [1]: >200 ppm a.i. | Ecotoxicity LC50-96 h found [1]: >200 ppm a.i.

COCC(=O)N(c1c(C)cccc1C)[C@H](C)C(=O)OC [12.004 mefenoxam]
Efficacy in % found ([2]; 50 ppm a.i.): 0% | Efficacy in % found ([2]; 100 ppm a.i.): 8% | Efficacy in % found ([2]; 200 ppm a.i.): 15% | Efficacy % ([3]; 20 ppm): 0% | Efficacy % ([3]; 100 ppm): 0% | Efficacy % ([4]; 20 ppm): 28% | Efficacy % ([4]; 100 ppm): 42% | Efficacy in % found ([5]; 50 ppm a.i.): 0% | Efficacy in % found ([5]; 100 ppm a.i.): 8% | Efficacy in % found ([5]; 200 ppm a.i.): 0%

Cc1nn(C)c(F)c1C(=O)Nc1ccccc1C(C)CC(C)C (centres unmarked) [Example 2.017, penflufen]
Ecotoxicity LC50-48 h found [1]: 1.74 ppm a.i. | Ecotoxicity LC50-96 h found [1]: 0.62 ppm a.i.

N#Cc1cncn1CC(O)(Cc1cccc(Cl)c1F)C1(Cl)CC1 (centres unmarked) [Example I-145, 1-[3-(3-chloro-2-fluorophenyl)-2-(1-chlorocyclopropyl)-2-hydroxypropyl]-1H-imidazole-5-carbonitrile]
Efficacy in % found ([6]; 1 ppm a.i.): 8% | Efficacy in % found ([6]; 5 ppm a.i.): 40% | Efficacy in % found ([2]; 1 ppm a.i.): 23% | Efficacy in % found ([2]; 5 ppm a.i.): 75% | Efficacy in % found ([7]; 1 ppm a.i.): 0% | Efficacy in % found ([7]; 5 ppm a.i.): 0% | Efficacy % ([8]; 0.008 ppm): 0% | Efficacy % ([8]; 0.04 ppm): 0% and 2% | Efficacy % ([8]; 0.2 ppm): 32% | Efficacy % ([8]; 1 ppm): 1% | Efficacy % ([3]; 0.2 ppm): 84% | Efficacy % ([3]; 1 ppm): 87% | Efficacy % ([9]; 0.008 ppm): 0% | Efficacy % ([9]; 0.04 ppm): 0% | Efficacy % ([4]; 0.008 ppm): 29% | Efficacy % ([4]; 0.04 ppm): 25% | Efficacy % ([4]; 0.2 ppm): 51% | Efficacy % ([4]; 1 ppm): 63% | LC50 at 48 h [10]: 28.2 µg/mL | LC50 at 96 h [10]: 13.4 µg/mL | Efficacy in % found ([11]; 1 ppm a.i.): 0% | Efficacy in % found ([11]; 5 ppm a.i.): 66% | Efficacy in % found ([5]; 1 ppm a.i.): 0% | Efficacy in % found ([5]; 5 ppm a.i.): 45%

metalaxyl [12.003 metalaxyl]
Efficacy in % found ([6]; 50 ppm a.i.): 8% | Efficacy in % found ([6]; 100 ppm a.i.): 8% | Efficacy in % found ([6]; 200 ppm a.i.): 30% | Efficacy in % found ([2]; 50 ppm a.i.): 0% | Efficacy in % found ([2]; 100 ppm a.i.): 0% | Efficacy in % found ([2]; 200 ppm a.i.): 8% | Efficacy % ([3]; 20 ppm): 0% | Efficacy % ([3]; 100 ppm): 5% | Efficacy % ([4]; 20 ppm): 43% | Efficacy % ([4]; 100 ppm): 31% | Ecotoxicity LC50-48 h found [1]: >200 ppm a.i. | Ecotoxicity LC50-96 h found [1]: >200 ppm a.i. | Efficacy in % found ([5]; 50 ppm a.i.): 0% | Efficacy in % found ([5]; 100 ppm a.i.): 0% | Efficacy in % found ([5]; 200 ppm a.i.): 20%
